Measurements published in patent publication US11753445B2, “Therapeutic peptides” (COHBAR, INC., priority 2016, dated 2023).
Peptide text beside a SMILES is read from it.

Assays:
[1] = test system: 3T3-L1 Adipocytes; assay: Free fatty acid levels in cultured mouse 3T3-L1 adipocytes, isoproterenol stimulated (Example 2); type: cell-based; conditions: test peptides 25 μM; isoproterenol 1 nM
Procedure, shortened: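 Release of free fatty acids, read at 540 nm, was stimulated with 1 nM isoproterenol for 3 h in mouse 3T3-L1 adipocytes (12–17 days of differentiation). Cells were pre-exposed to 25 μM peptide for 18–20 h plus 1 h, with peptide kept in during stimulation. Values are background-subtracted and normalised to isoproterenol alone.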

[2] = Stability in mouse plasma, peptides 100 uM (Example 14); type: in vitro ADME; conditions: mouse plasma 37° C., peptide 100 uM
Protocol: Peptides (100 uM) were incubated in pooled mouse plasma at 37° C. and samples were removed and immediately analyzed for the concentration of intact peptide by LC/MS/MS over the course of 3 hours. The percent of peptide remaining in plasma at each time point was calculated relative to the initial peak area (Table 12).

[3] = Stability in mouse plasma, peptides 10 uM (Example 15); type: in vitro ADME; conditions: mouse plasma 37° C., peptide 10 uM; for remaining at 0.25 h, 10 uM / remaining at 0.5 h, 10 uM / remaining at 1 h, 10 uM / remaining at 2 h, 10 uM / remaining at 3 h, 10 uM: pooled mouse plasma; for remaining at 0.25 h, 10 uM: 15 min, read-out: % Remaining at Each Time Point: 15 min; for remaining at 0.5 h, 10 uM: 30 min, read-out: % Remaining at Each Time Point: 30 min; for remaining at 1 h, 10 uM: 60 min, read-out: % Remaining at Each Time Point: 60 min; for remaining at 2 h, 10 uM: 120 min, read-out: % Remaining at Each Time Point: 120 min; for remaining at 3 h, 10 uM: 180 min, read-out: % Remaining at Each Time Point: 180 min
Protocol: Peptides (10 uM) were incubated in pooled mouse plasma at 37° C. and samples were removed and immediately analyzed for the concentration of intact peptide by LC/MS/MS over the course of 3 hours. The percent of peptide remaining in plasma at each time point was calculated relative to the initial peak area (Table 13).

% Remaining at Each Time Point: 0 min ([2]; 0 min)	remaining at 0.25 h, 100 uM ([2]; pooled mouse plasma, 15 min, read-out: % Remaining at Each Time Point: 15 min)	remaining at 0.5 h, 100 uM ([2]; pooled mouse plasma, 30 min, read-out: % Remaining at Each Time Point: 30 min)	remaining at 1 h, 100 uM ([2]; pooled mouse plasma, 60 min, read-out: % Remaining at Each Time Point: 60 min)	remaining at 2 h, 100 uM ([2]; pooled mouse plasma, 120 min, read-out: % Remaining at Each Time Point: 120 min)	remaining at 3 h, 100 uM ([2]; pooled mouse plasma, 180 min, read-out: % Remaining at Each Time Point: 180 min)	% Remaining at Each Time Point: 0 min [3]	remaining at 0.25 h, 10 uM [3]	remaining at 0.5 h, 10 uM [3]	remaining at 1 h, 10 uM [3]	remaining at 2 h, 10 uM [3]	remaining at 3 h, 10 uM [3]	Compound	Free Fatty Acid Levels in 3T3-L1 Adipocytes Expressed as a Percent of Isoproterenol Control: Percent of Control Value [1]
–	–	–	–	–	–	100%	64%	45.2%	26.8%	8.76%	2.93%	H-MRWQEMNYIFYP-NH2 [compound 287]	78.1%
–	–	–	–	–	–	100%	13.8%	3.22%	0.59%	0.36%	0.21%	H-QEMGYIFYPRKL-OH [compound 270]	66.9%
–	–	–	–	–	–	100%	34.9%	25.7%	1.92%	0.41%	0.29%	H-MRWQEMNYIFYP-OH [compound 282]	71.8%
–	–	–	–	–	–	100%	82.9%	74.6%	78.4%	77.2%	75.6%	CCCCCCCCCCCCCCCC(=O)N[C@@H](CCSC)C(=O)N[C@@H](CCCNC(=N)N)C(=O)N[C@@H](Cc1c[nH]c2ccccc12)C(=O)N[C@@H](CCC(N)=O)C(=O)N[C@@H](CCC(=O)O)C(=O)N[C@@H](CCSC)C(=O)N[C@@H](CC(N)=O)C(=O)N[C@@H](Cc1ccc(O)cc1)C(=O)N[C@H](C(=O)N[C@@H](Cc1ccccc1)C(=O)N[C@@H](Cc1ccc(O)cc1)C(=O)N1CCC[C@H]1C(=O)N[C@@H](CCCNC(=N)N)C(=O)O)[C@@H](C)CC [compound 289] (HELM PEPTIDE1{[CCCCCCCCCCCCCCCC(=O)[*:2]].M.R.W.Q.E.M.N.Y.I.F.Y.P.R}$$$$V2.0)	94.5%
–	–	–	–	–	–	100%	88.4%	74.7%	57.1%	36.4%	25.9%	Ac-MRWQEMNYIFYPR-OH [compound 286]	94.8%
–	–	–	–	–	–	100%	38.5%	16.7%	9.17%	1.76%	0.87%	H-WQEMNYIFYP-OH [compound 285]	96.0%
–	–	–	–	–	–	100%	90%	81.9%	77.4%	69.2%	67%	CC[C@H](C)[C@H](NC(=O)[C@H](Cc1ccc(O)cc1)NC(=O)[C@H](CC(N)=O)NC(=O)[C@H](CCSC)NC(=O)[C@H](CCC(=O)O)NC(=O)[C@H](CCC(N)=O)NC(=O)[C@H](Cc1c[nH]c2ccccc12)NC(=O)[C@H](CCCNC(=N)N)NC(=O)[C@@H](C)N)C(=O)N[C@@H](Cc1ccccc1)C(=O)N[C@@H](Cc1ccc(O)cc1)C(=O)N1CCC[C@H]1C(=O)N[C@@H](CCCNC(=N)N)C(=O)O [compound 288] (HELM PEPTIDE1{[dA].R.W.Q.E.M.N.Y.I.F.Y.P.R}$$$$V2.0)	93.0%
–	–	–	–	–	–	100%	70%	45.8%	17.2%	2.64%	0.43%	H-WQEMGYIFYPRKL-OH [compound 269]	59.2%
–	–	–	–	–	–	100%	75.3%	60.1%	41.1%	22.1%	13.7%	H-WQEMNYIFYPR-OH [compound 284]	97.1%

Continued, compound first:

Compound	% Remaining at Each Time Point: 0 min ([2]; 0 min)	remaining at 0.25 h, 100 uM ([2]; pooled mouse plasma, 15 min, read-out: % Remaining at Each Time Point: 15 min)	remaining at 0.5 h, 100 uM ([2]; pooled mouse plasma, 30 min, read-out: % Remaining at Each Time Point: 30 min)	remaining at 1 h, 100 uM ([2]; pooled mouse plasma, 60 min, read-out: % Remaining at Each Time Point: 60 min)	remaining at 2 h, 100 uM ([2]; pooled mouse plasma, 120 min, read-out: % Remaining at Each Time Point: 120 min)	remaining at 3 h, 100 uM ([2]; pooled mouse plasma, 180 min, read-out: % Remaining at Each Time Point: 180 min)	% Remaining at Each Time Point: 0 min [3]	remaining at 0.25 h, 10 uM [3]	remaining at 0.5 h, 10 uM [3]	remaining at 1 h, 10 uM [3]	remaining at 2 h, 10 uM [3]	remaining at 3 h, 10 uM [3]	Free Fatty Acid Levels in 3T3-L1 Adipocytes Expressed as a Percent of Isoproterenol Control: Percent of Control Value [1]
H-ARWQEMGYIFYPRKLR-OH [compound 6]	100%	17.5%	19.3%	21.4%	10.9%	6.89%	–	–	–	–	–	–	58.6%
H-RWQEEQYIAYPR-OH [compound 265]	–	–	–	–	–	–	100%	83.3%	74.5%	54.9%	56%	51.7%	66.7%
H-RWQEMNYIAYPR-OH [compound 250]	–	–	–	–	–	–	100%	63.2%	54.1%	35.9%	20%	11.7%	83.0%
H-RWQEENYIAYPR-OH [compound 260]	–	–	–	–	–	–	100%	79.4%	68.8%	53.1%	35.7%	35.9%	75.9%
H-RWQEEQYIFEPR-OH [compound 264]	–	–	–	–	–	–	100%	76.7%	68.2%	54.5%	59.4%	56.1%	63.2%
H-RWQEMNYIFEPR-OH [compound 249]	–	–	–	–	–	–	100%	46.7%	40.5%	28.3%	15.8%	11.1%	81.3%
H-RWQEMGYIFYPRKL-OH [compound 268]	–	–	–	–	–	–	100%	76.1%	49.5%	20.3%	0.48%	0%	41.9%
H-RWQEEQYIAEPR-OH [compound 266]	–	–	–	–	–	–	100%	70.7%	72.3%	38.3%	74.8%	51.1%	72.7%
